Results as given in patent US20070006551A1, “Method and apparatus for sterilizing and filling containers” (priority 2005, published 2007).
Where “and” joins values, the source holds several entries; their conditions need not be identical. Identical values can stand only once. Like-named read-outs stand apart in the source and are kept apart here.

Assays:
[1] = system: B. subtilis var. globigii (ATCC. 9372)
Procedure: (§1) The experiments were designed to identify the conditions optimal for polymer sterilization and also explore the boundary areas to determine the conditions limiting the efficacy of the treatment. Each polymer strip was inoculated by drop spotting approximately 100 micro-liters and coating the surface by swabbing the surface of the polyethylene strip. The culture was allowed to dry before sterilization. Each strip of polyethylene was treated by vigorously agitating the strip in the appropriate treatment solutions. Each treated polymer strip was then treated with catalase to inactivate residual peroxide, swabbed and plated using TGE incubated at 35° C. for two days.
Five replicate polymer strips were used for each of the two methods of the present invention. A log measurement value is provided below each of the non-log values. The first method uses hydrogen peroxide first and then an alkaline solution of sodium hydroxide. The second method uses an alkaline solution of sodium hydroxide first and then hydrogen peroxide. The sterilization was conducted at 50° C.
In Table Three, a solution of 0.1 Normal potassium hydroxide (KOH) was utilized with a solution of 3% hydrogen peroxide at a temperature of 35° C. for 30 seconds.

[2] = system: B. subtilis var. globigii (ATCC. 9372); settings: 50° C.; for bacteriocidal effect (in words): Table Two conditions; for CFU/Swab / logCFU/Swab / Average (logCFU/Swab) / Log reduction: Table Two; for CFU/Swab / logCFU/Swab: contact times as in the label, one value per replicate; for Average (logCFU/Swab): mean of replicates; for Log reduction: versus inoculated untreated control (6.66)
Procedure: as §1
A log measurement value is provided below each of the non-log values. The sterilization was conducted at 50° C.

[3] = Table Three, 35° C. for 30 seconds, one value per replicate

Compound: [Na+].[OH-] [1M NaOH Control, sodium hydroxide]
- CFU/Swab ([1]; Table One, 50° C., survivors after treatment, inoculum 10^6, one value per replicate strip): 5,700 CFU/Swab and 210 CFU/Swab
- logCFU/Swab ([1]; Table One, 50° C., survivors after treatment, one value per replicate strip): 3.76 logCFU/Swab and 2.32 logCFU/Swab

Compound: [Na+].[OH-] [50° C. 10 s 0.25M NaOH Control, sodium hydroxide]
- bacteriocidal effect (in words) [2]: no bacteriocidal effect
- CFU/Swab [2]: 3,800,000 CFU/Swab and 7,900,000 CFU/Swab and 5,400,000 CFU/Swab and 6,300,000 CFU/Swab
- logCFU/Swab [2]: 6.80 logCFU/Swab and 6.58 logCFU/Swab and 6.90 logCFU/Swab and 6.73 logCFU/Swab
- Average (logCFU/Swab) [2]: 6.75

Compound: OO [50° C. 30 s 3.5% H2O2 10 s catalase, hydrogen peroxide]
- bacteriocidal effect (in words) [2]: no effect
- CFU/Swab [2]: 4,200,000 CFU/Swab and 4,000,000 CFU/Swab and 3,000,000 CFU/Swab and 5,000,000 CFU/Swab and 1,600,000 CFU/Swab
- logCFU/Swab [2]: 6.20 logCFU/Swab and 6.62 logCFU/Swab and 6.60 logCFU/Swab and 6.48 logCFU/Swab and 6.70 logCFU/Swab
- Average (logCFU/Swab) [2]: 6.52
- Log reduction [2]: 0.14

Compound: OO [50° C. 30 s 35% H2O2 10 s catalase, hydrogen peroxide]
- rate of inactivation ([2]; thirty second treatment): 1.45 log per 10 seconds of treatment
- CFU/Swab [2]: 570 CFU/Swab and 20 CFU/Swab and 270 CFU/Swab and 2700 CFU/Swab and 40 CFU/Swab
- logCFU/Swab [2]: 1.60 logCFU/Swab and 2.76 logCFU/Swab and 1.30 logCFU/Swab and 2.43 logCFU/Swab and 3.43 logCFU/Swab
- Average (logCFU/Swab) [2]: 2.30
- Log reduction [2]: 4.35
- Log reduction ([2]; listed as thirty second hydrogen peroxide treatment (column 4)): 4.35

Compound: OO [H2O2 Control, hydrogen peroxide]
- CFU/Swab [1, 3]: 5,200,000 CFU/Swab
- logCFU/Swab [1, 3]: 6.72 logCFU/Swab
